From patent US20120220581A1, “IMIDAZO[1,2-b]PYRIDAZINE DERIVATIVES AND THEIR USE AS PDE10 INHIBITORS” (Janssen-Cilag, S.A., priority 2009, published 2012)

Legend:
[1] = biological target: other members of the PDE family (Homo sapiens, UniProt Q9HCR9); test: In vitro PDE selectivity assay (SPA), other members of the PDE family (protocols in Table A); format: biochemical; settings: hPDE11A4; read-out: PDE 11A4 (expressed as pIC50) (converted)
In short: (§1)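 Inhibition of each PDE isoform was measured by scintillation proximity assay with ³H-cyclic nucleotide substrate, using incubation buffer, substrate concentration, incubation time and stop solution adapted per isoform. Compounds were tested in dose-response against 1% DMSO controls and enzyme-free blanks. IC50 came from a least-squares fit of blank-subtracted % of control versus concentration.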

[2] = biological target: other members of the PDE family (Homo sapiens, UniProt O00408); test: as above; format: biochemical; settings: hPDE2A; read-out: PDE 2A (expressed as pIC50) (converted)
In short: as §1

[3] = biological target: other members of the PDE family (Homo sapiens, UniProt O76083); test: as above; format: biochemical; settings: hPDE9A; read-out: PDE 9A (expressed as pIC50) (converted)
In short: as §1

[4] = biological target: other members of the PDE family (Homo sapiens, UniProt Q14432); test: as above; format: biochemical; settings: hPDE3A; read-out: PDE 3A (expressed as pIC50) (converted)
In short: as §1

[5] = biological target: other members of the PDE family (Homo sapiens, UniProt Q13946); test: as above; format: biochemical; settings: hPDE7A1; read-out: PDE 7A (expressed as pIC50) (converted)
In short: as §1

PDE5A3 = PDE5A3 (Homo sapiens, UniProt O76074); test: In vitro PDE selectivity assay (SPA), PDE5A3; format: biochemical; settings: hPDE5A3; read-out: PDE 5A3 (expressed as pIC50) (converted)
In short: as §1

[6] = test system: SCH-23390-induced hypolocomotion in mice; test: SCH-23390-induced hypolocomotion in mice; format: in vivo; settings: Mus musculus
Procedure: SCH-23390 (0.08 mg/kg, i.v.)-induced hypolocomotion was evaluated over a 30-min period starting immediately after the SCH-23390 challenge in male NMRI mice pretreated 0.5 h earlier with test compound or solvent. Averaged activity in solvent-treated control mice was 1540±559 counts (mean±SD; n=103). Criterion for drug-induced reversal of the SCH-23390-induced hypolocomotion: total distance: >2500 counts (2.9% false positives in controls).

[7] = test system: PCP-induced hyperlocomotion in rats; test: PCP-induced hyperlocomotion in rats; format: in vivo; settings: Rattus norvegicus
Procedure: Motor activity [horizontal activity (locomotion) and vertical activity (rearing)] was recorded in male Wiga rats (body weight: 175-275 g; housed overnight in groups of 7 rats) using microprocessor-based activity monitors (MED Associates; length×width×height: 43.2×43.2×41.5 cm) over a period of 30 min. The resolution of the system was set at 100 msec. Total distance was defined as the distance traveled, measured by changes in the number or location of interrupted xy-beams (located in two arrays of 32 infrared light beams (1.25 cm apart) perpendicular to each other in a horizontal plane 2.0 cm above the floor). Vertical activity was defined as the number of periods of continuous breaks reported by an infrared array of 32 light beams in a horizontal plane 13 cm above the floor. The intensity of the light within the activity meters (measured in the centre at floor level) ranged between 110 and 130 LUX.
Male Wiga rats (200 to 260 g) were pretreated with test compound or solvent (10 ml/kg, s.c.) and placed in individual cages. At a predefined interval thereafter (60 min.), the rats were challenged with PCP (1.25 mg/kg, i.v.) and motor activity was measured over a period of 30 min starting immediately after the PCP challenge. […]

PDE4D3 = PDE4D3 (Homo sapiens, UniProt Q08499); test: In vitro PDE selectivity assay (SPA), PDE4D3; format: biochemical; settings: hPDE4D3; read-out: PDE 4D3 (expressed as pIC50) (converted)
In short: as §1

[8] = test system: apomorphine-induced stereotypy in rats; test: Apomorphine-induced stereotypy in rats (APO); format: in vivo; settings: Rattus norvegicus; dose at which 50% of the tested animals show the effect; ≧: active in 30% of the animals at the indicated dose; ≦: active in 60%
Procedure: Apomorphine (1.0 mg/kg, i.v.)-induced stereotypy (compulsive sniffing, licking, chewing) was scored every 5 min over the first hour after injection of apomorphine, following a 1 hour interval pre-treatment with the test compound. The score system was: (3) pronounced, (2) moderate, (1) slight, and (0) absent.

Sequence of other members of the PDE family (Homo sapiens, UniProt Q14432) (Q14432 whole entry): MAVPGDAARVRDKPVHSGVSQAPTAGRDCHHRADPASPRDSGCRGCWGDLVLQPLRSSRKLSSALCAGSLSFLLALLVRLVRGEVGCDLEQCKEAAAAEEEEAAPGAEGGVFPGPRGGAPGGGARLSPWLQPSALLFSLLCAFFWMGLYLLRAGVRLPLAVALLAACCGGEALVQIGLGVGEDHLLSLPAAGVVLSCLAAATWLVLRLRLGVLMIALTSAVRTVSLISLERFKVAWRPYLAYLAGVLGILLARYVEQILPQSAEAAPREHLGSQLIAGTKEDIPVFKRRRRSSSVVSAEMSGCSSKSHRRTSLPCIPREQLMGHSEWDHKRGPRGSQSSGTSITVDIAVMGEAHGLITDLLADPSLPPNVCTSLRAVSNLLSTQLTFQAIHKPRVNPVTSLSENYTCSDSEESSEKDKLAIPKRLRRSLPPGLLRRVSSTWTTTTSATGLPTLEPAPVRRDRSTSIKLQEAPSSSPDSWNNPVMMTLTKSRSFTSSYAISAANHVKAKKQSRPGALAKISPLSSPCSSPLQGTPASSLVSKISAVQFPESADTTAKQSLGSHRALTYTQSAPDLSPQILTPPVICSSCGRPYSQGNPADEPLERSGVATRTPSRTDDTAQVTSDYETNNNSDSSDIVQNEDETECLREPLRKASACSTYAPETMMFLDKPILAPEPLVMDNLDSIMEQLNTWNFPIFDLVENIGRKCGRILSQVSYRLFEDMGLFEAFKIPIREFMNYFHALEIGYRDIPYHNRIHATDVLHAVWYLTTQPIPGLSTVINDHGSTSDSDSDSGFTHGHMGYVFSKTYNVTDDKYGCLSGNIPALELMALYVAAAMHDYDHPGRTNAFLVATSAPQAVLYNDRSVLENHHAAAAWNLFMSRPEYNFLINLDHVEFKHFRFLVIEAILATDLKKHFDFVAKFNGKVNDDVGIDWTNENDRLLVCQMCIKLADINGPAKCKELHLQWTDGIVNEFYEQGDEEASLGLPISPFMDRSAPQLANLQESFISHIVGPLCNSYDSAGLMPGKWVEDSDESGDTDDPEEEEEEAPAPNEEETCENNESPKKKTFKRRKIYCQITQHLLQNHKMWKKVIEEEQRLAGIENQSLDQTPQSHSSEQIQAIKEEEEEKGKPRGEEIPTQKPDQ
Sequence of PDE4D3 (Q08499 1-673 isoform Q08499-2): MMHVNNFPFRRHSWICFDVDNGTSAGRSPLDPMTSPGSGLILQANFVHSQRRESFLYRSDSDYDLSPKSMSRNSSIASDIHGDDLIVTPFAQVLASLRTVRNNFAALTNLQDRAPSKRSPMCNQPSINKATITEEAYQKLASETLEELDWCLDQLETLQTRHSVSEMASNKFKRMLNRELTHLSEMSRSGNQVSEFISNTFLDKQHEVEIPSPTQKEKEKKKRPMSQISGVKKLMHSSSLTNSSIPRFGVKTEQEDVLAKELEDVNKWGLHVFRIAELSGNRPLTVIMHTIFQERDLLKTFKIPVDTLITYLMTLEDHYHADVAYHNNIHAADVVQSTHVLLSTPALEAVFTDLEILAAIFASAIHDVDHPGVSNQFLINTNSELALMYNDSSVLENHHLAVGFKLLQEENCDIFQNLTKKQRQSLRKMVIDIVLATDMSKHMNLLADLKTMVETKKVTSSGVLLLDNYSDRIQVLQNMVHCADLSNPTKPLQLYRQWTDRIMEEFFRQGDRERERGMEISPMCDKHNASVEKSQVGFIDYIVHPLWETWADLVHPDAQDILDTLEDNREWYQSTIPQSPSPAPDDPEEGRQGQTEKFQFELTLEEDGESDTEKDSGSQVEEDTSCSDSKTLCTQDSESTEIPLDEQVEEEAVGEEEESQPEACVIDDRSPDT
Sequence of other members of the PDE family (Homo sapiens, UniProt O76083) (O76083 whole entry): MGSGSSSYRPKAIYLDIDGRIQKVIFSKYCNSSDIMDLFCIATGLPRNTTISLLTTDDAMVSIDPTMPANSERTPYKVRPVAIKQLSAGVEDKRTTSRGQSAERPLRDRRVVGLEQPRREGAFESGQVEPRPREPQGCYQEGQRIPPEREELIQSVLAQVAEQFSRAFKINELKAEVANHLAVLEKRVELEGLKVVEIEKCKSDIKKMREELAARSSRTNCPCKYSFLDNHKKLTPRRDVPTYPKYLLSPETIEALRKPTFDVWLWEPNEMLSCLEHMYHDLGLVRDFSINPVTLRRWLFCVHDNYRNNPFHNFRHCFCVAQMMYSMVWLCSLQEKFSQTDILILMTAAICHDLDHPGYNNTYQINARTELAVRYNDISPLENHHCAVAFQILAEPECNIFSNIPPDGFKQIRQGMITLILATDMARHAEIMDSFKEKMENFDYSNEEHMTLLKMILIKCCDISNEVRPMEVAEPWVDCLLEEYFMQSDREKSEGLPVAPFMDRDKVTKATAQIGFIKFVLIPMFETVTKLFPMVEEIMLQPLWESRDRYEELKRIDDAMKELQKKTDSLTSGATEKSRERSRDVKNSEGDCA
Sequence of other members of the PDE family (Homo sapiens, UniProt O00408) (O00408 whole entry): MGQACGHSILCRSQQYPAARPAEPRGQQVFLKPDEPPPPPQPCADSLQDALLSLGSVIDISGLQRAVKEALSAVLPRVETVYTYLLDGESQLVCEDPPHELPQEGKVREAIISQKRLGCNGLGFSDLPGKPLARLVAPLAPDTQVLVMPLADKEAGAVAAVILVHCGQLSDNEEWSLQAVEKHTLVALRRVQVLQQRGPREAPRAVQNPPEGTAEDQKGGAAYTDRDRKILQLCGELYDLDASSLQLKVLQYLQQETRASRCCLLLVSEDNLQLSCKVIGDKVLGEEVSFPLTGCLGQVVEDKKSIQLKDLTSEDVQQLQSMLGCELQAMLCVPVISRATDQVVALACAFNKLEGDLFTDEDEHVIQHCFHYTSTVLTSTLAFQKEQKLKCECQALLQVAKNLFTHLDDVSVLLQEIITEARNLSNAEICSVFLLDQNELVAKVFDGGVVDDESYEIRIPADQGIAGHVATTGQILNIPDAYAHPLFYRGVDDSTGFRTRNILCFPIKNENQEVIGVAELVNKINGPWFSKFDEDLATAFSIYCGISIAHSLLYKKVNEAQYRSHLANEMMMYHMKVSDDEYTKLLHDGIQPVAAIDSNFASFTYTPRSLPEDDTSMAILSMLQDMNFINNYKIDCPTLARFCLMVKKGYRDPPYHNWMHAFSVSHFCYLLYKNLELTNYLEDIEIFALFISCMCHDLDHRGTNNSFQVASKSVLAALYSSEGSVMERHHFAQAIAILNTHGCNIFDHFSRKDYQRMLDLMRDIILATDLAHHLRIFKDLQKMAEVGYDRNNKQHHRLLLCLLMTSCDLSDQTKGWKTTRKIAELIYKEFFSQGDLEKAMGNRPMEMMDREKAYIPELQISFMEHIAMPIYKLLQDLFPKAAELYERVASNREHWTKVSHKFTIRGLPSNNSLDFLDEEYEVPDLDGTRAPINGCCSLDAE
Sequence of other members of the PDE family (Homo sapiens, UniProt Q9HCR9) (Q9HCR9 whole entry, canonical isoform): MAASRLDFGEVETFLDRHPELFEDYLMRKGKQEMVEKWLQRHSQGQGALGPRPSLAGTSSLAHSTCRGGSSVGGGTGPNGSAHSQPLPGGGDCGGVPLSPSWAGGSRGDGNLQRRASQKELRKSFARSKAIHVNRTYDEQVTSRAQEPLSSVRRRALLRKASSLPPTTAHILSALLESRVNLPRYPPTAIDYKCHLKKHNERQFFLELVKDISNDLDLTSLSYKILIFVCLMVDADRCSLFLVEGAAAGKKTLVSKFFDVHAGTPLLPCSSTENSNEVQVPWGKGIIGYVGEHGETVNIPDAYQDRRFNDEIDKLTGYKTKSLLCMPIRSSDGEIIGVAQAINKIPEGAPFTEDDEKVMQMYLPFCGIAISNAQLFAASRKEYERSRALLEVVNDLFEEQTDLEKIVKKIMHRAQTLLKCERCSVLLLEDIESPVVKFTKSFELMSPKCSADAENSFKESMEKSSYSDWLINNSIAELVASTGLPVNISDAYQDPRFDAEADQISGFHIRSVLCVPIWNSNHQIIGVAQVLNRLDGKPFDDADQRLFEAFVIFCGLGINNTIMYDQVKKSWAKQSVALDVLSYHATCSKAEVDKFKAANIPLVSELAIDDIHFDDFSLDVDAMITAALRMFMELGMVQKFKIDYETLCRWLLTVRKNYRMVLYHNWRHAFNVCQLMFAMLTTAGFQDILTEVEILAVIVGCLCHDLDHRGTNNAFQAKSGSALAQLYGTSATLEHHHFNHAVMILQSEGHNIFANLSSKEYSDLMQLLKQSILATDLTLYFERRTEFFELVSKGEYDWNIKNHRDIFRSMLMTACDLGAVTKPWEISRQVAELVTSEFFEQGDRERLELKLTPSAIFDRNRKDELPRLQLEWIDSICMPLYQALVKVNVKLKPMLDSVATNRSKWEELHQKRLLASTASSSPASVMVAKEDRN
Sequence of other members of the PDE family (Homo sapiens, UniProt Q13946) (Q13946 whole entry): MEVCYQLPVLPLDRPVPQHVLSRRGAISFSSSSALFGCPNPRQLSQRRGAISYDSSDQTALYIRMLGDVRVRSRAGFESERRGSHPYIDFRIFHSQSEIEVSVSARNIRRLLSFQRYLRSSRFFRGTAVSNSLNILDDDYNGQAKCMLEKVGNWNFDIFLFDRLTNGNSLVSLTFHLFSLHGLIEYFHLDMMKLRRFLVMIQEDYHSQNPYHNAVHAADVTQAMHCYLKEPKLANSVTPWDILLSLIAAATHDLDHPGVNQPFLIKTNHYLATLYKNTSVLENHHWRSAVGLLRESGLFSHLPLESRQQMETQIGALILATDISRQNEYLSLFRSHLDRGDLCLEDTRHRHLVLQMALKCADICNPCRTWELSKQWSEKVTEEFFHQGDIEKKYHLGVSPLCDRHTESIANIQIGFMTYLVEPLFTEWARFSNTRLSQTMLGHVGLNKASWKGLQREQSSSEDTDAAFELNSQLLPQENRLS

In the case of `COCCc1ccc(-c2c(C)nc3c(N4CCOCC4)ccnn23)cn1` [compound 1, 3-[6-(2-methoxyethyl)-3-pyridinyl]-2-methyl-8-(4-morpholinyl)-imidazo[1,2-b]pyridazine], the IC50 [1] is reported as 74.1 µM, the IC50 [2] is reported as 39.8 µM and the IC50 [3] is reported as over 100 µM. The IC50 [4] was 97.7 µM, the IC50 [5] was 69.2 µM and the IC50 (PDE5A3) was 17 µM. For the same molecule, the ED50 [6] was 7.1 mg/kg, the ED50 [7] was 2 mg/kg and the IC50 (PDE4D3) was 30.9 µM. It also gave an ED50 [8] of 1.3 mg/kg.
Molecule `COCCOc1ccc(-c2c(C)nc3c(-c4ccncc4)ccnn23)cn1` [compound 21, 3-[6-(2-methoxyethoxy)-3-pyridinyl]-2-methyl-8-(4-pyridinyl)-imidazo[1,2-b]pyridazine] has an IC50 [1] of over 50.1 µM, an IC50 [2] of 47.9 µM and an IC50 [3] of over 50.1 µM. It also gave an IC50 [4] of over 50.1 µM, an IC50 [5] of over 50.1 µM and an IC50 (PDE5A3) of 19.1 µM. For the same molecule, the ED50 [6] was 5 mg/kg, the ED50 [7] was 6.1 mg/kg and the IC50 (PDE4D3) was 28.2 µM. For the same molecule, the ED50 [8] was 1.5 mg/kg.
